Key:
adult ACC neurons = test: LTP induced by EPSPs-APs protocol in ACC slices; type: cell-based, mouse; conditions: 0.3 μM
Experimental: Coronal brain slices ([…]) from 6-8-week-old C57BL/6 mice, containing ACC or hippocampus, were prepared using standard methods (Wei et al., 2001). Slices were transferred to a submerged recovery chamber containing oxygenated (95% O2 and 5% CO2) artificial cerebrospinal fluid (ACSF) (in mM: 124 NaCl, 4.4 KCl, 2 CaCl2, 1 MgSO4, 25 NaHCO3, 1 NaH2PO4, 10 glucose) at room temperature for at least 1 h.
Experiments were performed in a recording chamber on the stage of an Axioskop 2FS microscope with infrared DIC optics for visualizing whole-cell patch clamp recordings. EPSCs were recorded from layer II-III neurons using an Axon 200B amplifier (Axon Instruments, CA) and stimulations were delivered using a bipolar tungsten stimulating electrode placed in layer V of the ACC. In hippocampal slices, EPSCs were evoked by stimulating the Schaffer collateral-commissural pathway. EPSCs were induced by repetitive stimulations at 0.02 Hz and neurons were voltage clamped at −70 mV. The recording pipettes (3-5 MΩ) were filled with solution containing (mM) 145 K-gluconate, 5 NaCl, 1 MgCl2, 0.2 EGTA, 10 HEPES, 2 Mg-ATP, and 0.1 Na3-GTP (adjusted to pH 7.2 with KOH). After obtaining stable EPSCs for 10 min, three kinds of LTP induction paradigms were used within 12 min after establishing the whole-cell configuration to prevent wash out effect on LTP induction (Tsvetkov et al., 2002). The first protocol involved paired presynaptic 80 pulses at 2 Hz with postsynaptic depolarization at +30 mV (referred to as pairing training). The second involved paired 3 presynaptic stimuli that caused 3 EPSPs (10 ms ahead) with 3 postsynaptic APs at 30 Hz, paired 15 times every 5 s (named as EPSPs-APs protocol). The third involved theta-burst stimulation (5 trains of burst with 4 pulses at 100 Hz, at 200 ms interval; repeated 4 times at intervals of 10 s; named as TBS). The NMDAR-mediated component of EPSCs was pharmacologically isolated in Mg^2+-free ACSF containing: CNQX (20 μM), glycine (1 μM) and picrotoxin (100 μM). The patch electrodes contained (in mM) 102 cesium gluconate, 5 TEA-chloride, 3.7 NaCl, 11 BAPTA, 0.2 EGTA, 20 HEPES, 2 MgATP, 0.3 NaGTP, and 5 QX-314 chloride (adjusted to pH 7.2 with CsOH). Neurons were voltage clamped at −60 mV and NMDARs-mediated EPSCs were evoked at 0.05 Hz. Picrotoxin (100 μM) was always present to block GABAA receptor-mediated inhibitory synaptic currents. The access resistance was 15-30 MΩ and was monitored throughout the experiment. Data were discarded if access resistance changed by more than 15% during an experiment. Results are expressed as means±SEM. Statistical comparisons were performed using the Student t-test. […]

mice = test: Locomotor activity in the open field; type: in vivo, mouse; conditions: bilateral ACC microinjection, recorded 15 minutes or one day after injection
Experimental: NR2B subunit inhibition in adult mice was examined to determine whether this impairs the formation of contextual fear memory. Three days after bilateral siRNA electroporation, mice were trained (or conditioned) and then tested for contextual fear memory by assessing freezing behavior in the same environmental context after 24 hours. There was no difference in baseline freezing or in freezing immediately following the shock/tone pairing between groups; however, there was a significant difference between groups when tested in the contextual environment one day later (n=8 for EGFP only; n=10 for control siRNA; n=8 for shock only; n=11 for NR2B siRNA; one-way ANOVA, p=0.005; FIG. 8C). […] Since the activation of NR2B was suppressed throughout the training and memory test, the roles of NR2B during the acquisition and retrieval of fear memory cannot be distinguished. Recently, electric stimulation of the ACC was reported to induce fear memory one and three days after stimulation (Tang et al., 2005), which implies that the ACC may be involved in the acquisition of fear memory. To directly address this issue, the effect of NR2B blockade using Ro25-6981 was examined. […] In order to rule out any locomotor side-effects, locomotor activity in the open field was tested after bilateral ACC microinjection of Ro25-6981 (n=4) or vehicle (n=4).

NR1/NR2A = conditions: cited from earlier work

**Q.** Which “potentiation after EPSPs-APs protocol, % of baseline” value (adult ACC neurons) does the source give for `C[C@@H](CN1CCC(Cc2ccccc2)CC1)[C@@H](O)c1ccc(O)cc1` [Ro25-6981] here?
**A.** 114.4±11.5%

**Q.** And the “effect on LTP induced by EPSPs-APs protocol” value (adult ACC neurons; FIG. 4B)?
**A.** blocked

**Q.** And the “locomotor activity in the open field” value (mice)?
**A.** no difference in locomotor activity

**Q.** What about the IC50 (NR1/NR2A) of the same compound?
**A.** 52 µM

From patent publication US20070161592A1, “Method of treating fear” (priority 2005, published 2007)
